Reference: patent US5990101A, “Carbapenem derivatives” (Meiji Seika Kabushiki Kaisha, priority 1995, dated 1999)

Assays:
[1] = Acute toxicity; assay type: in vivo; details: three ICR male mice, 1500 mg/kg i.v.
[2] = system: Ps. aeruginosa E-2; test: Antibacterial activity (MIC, two-fold method), Ps. aeruginosa E-2; assay type: cell-based; parameters: unit not given here
[3] = system: E. coli NIHJ JC-2; test: Antibacterial activity (MIC, two-fold method), E. coli NIHJ JC-2; assay type: cell-based; parameters: unit not given here
[4] = system: S. aureus M126; test: Antibacterial activity (MIC, two-fold method), S. aureus M126 (methicillin-resistant); assay type: cell-based; parameters: unit not given here
Description: *: Methicillinresistant Staphylococcus aureus-

[5] = system: S. aureus 209P JC-1; test: Antibacterial activity (MIC, two-fold method), S. aureus 209P JC-1; assay type: cell-based; parameters: unit not given here
[6] = system: S. marcescens GN10857; test: Antibacterial activity (MIC, two-fold method), S. marcescens GN10857; assay type: cell-based; parameters: unit not given here
[7] = system: K. pneumoniae PC1602; test: Antibacterial activity (MIC, two-fold method), K. pneumoniae PC1602; assay type: cell-based; parameters: unit not given here
[8] = system: E. faecalis W-73; test: Antibacterial activity (MIC, two-fold method), E. faecalis W-73; assay type: cell-based; parameters: unit not given here
[9] = system: E. cloacae GN747; test: Antibacterial activity (MIC, two-fold method), E. cloacae GN747; assay type: cell-based; parameters: unit not given here
[10] = system: P. vulgaris GN76; test: Antibacterial activity (MIC, two-fold method), P. vulgaris GN76; assay type: cell-based; parameters: unit not given here
[11] = system: E. coli 255; test: Antibacterial activity (MIC, two-fold method), E. coli 255; assay type: cell-based; parameters: unit not given here
[12] = system: C. freudii GN346; test: Antibacterial activity (MIC, two-fold method), C. freudii GN346; assay type: cell-based; parameters: unit not given here
[13] = system: Ps. aeruginosa M-0148; test: Antibacterial activity (MIC, two-fold method), Ps. aeruginosa M-0148; assay type: cell-based; parameters: unit not given here
[14] = system: renal dehydropeptidase-1 (DHP-1); details: background art; cited from earlier work

For `C[C@@H](O)[C@H]1C(=O)N2C(C(=O)[O-])=C(C[n+]3cc4scc(CNS(N)(=O)=O)n4c3)[C@H](C)[C@H]12` [Example 14, (1S,5R,6S)-6-[(1R)-1-hydroxyethyl]-2-[3-(aminosulfonyl)aminomethylimidazo[5,1-b]thiazolium-6-yl]methyl-1-methyl-1-carbapen-2-em-3-carboxylate], which “survival (acute toxicity)” value [1] is on record?
Its value is “All the animal survived”.

For `C[C@@H](O)[C@H]1C(=O)N2C(C(=O)[O-])=C(Cn3cc4sc(C(N)=O)c[n+]4c3)[C@H](C)[C@H]12` [Example 68, (1S,5R,6S)-6-[(1R)-1-hydroxyethyl]-2-(2-carbamoylimidazo[5,1-b]thiazolium-6-yl)methyl-1-methyl-1-carbapen-2-em-3-carboxylate], which MIC [2] is on record?
The MIC was 3.13.

And the MIC [3]?
The MIC was 0.20.

And the MIC [4]?
The MIC was 6.25.

What about the MIC [5] of the same compound?
The MIC was less than 0.025.

And the MIC [6]?
The MIC was 0.39.

What about the MIC [7] of the same compound?
The MIC was 0.20.

And the MIC [8]?
Its MIC is 6.25.

And the MIC [9]?
Its MIC is 0.20.

And the MIC [10]?
The MIC was 0.78.

What about the MIC [11] of the same compound?
Its MIC is 0.20.

And the MIC [12]?
The MIC was 0.10.

And the MIC [13]?
The MIC was 3.13.

Which “stability against renal dehydropeptidase-1 (DHP-1)” value [14] does the source give for `C[C@@H](O)[C@H]1C(=O)N2C(C(=O)O)=C(SCCN=CN)C[C@H]12` [Imipenem] here?
Its value is “instability”.
